Results: patent publication US11312939B2, “Constructs for chimeric antigen receptors” (Carisma Therapeutics Inc., priority 2020, dated 2022)

B1: CD40L: Recombinant CD40 ligand (Peprotech), CD40 agonist (protein, UniProt P29965 113-261, looked up)
CD40 ligand, soluble form: MQKGDQNPQIAAHVISEASSKTTSVLQWAEKGYYTMSNNLVTLENGKQLTVKRQGLYYIYAQVTFCSNREASSQAPFIASLCLKSPGRFERILLRAANTHSSAKPCGQQSIHLGGVFELQPGASVFVNVTDPSQVSHGTGFTSFGLLKL

Legend:
[1] = system: Human macrophages electroporated with HER2 CAR mRNA; test: Cytokine treatment of HER2 CAR mRNA macrophages: viability, CAR expression, M1/M2 markers by flow cytometry; format: cell-based; details: days 2 and 7
Experimental: Human macrophages were electroporated with HER2 CAR mRNA comprising m6AGCap1 and PsU modifications. Cells were cultured with cytokines that induce an M1 phenotype such as IFN-alpha, IFN-beta, IFN-gamma, IFN-gamma plus lipopolysaccharide (LPS), TNF-alpha, IL-6 or a STING ligand (STING-L) for up to 48 hours and then cytokines were washed off and fresh media was added. CAR expression and M1 marker expression were measured on days 2 and 7 after transfection. Fluorescent labeled HER2+ breast cancer cells (CRL2351) were co-cultured with HER2 CAR macrophages two days after the macrophages were transfected. Cancer cell growth was monitored via its fluorescence on an Incucyte® live imaging microscope every four hours. The Effector (CAR macrophage) to Target (cancer cell) ratio was 5:1.
Five different mRNA modifications were also tested to determine if interferon treatment differentially affected macrophages transfected with mRNA comprising different modifications. Human macrophages were electroporated with HER2 CAR mRNA comprising different mRNA modifications. CAR expression and M1 markers were detected by Flow Cytometry (Attune) on day four after electroporation. Day 4 CAR macrophage cells were then co-cultured with a Nuc-Light labeled, HER2+ breast cancer cell line (CRL2351) at an Effector (CAR macrophage) to Target (cancer cell) ratio of 5:1. Cancer cell growth was monitored via its fluorescence on an Incucyte® live imaging microscope every four hours.
Human macrophages were electroporated with 300 nM CAR mRNA comprising m6AGCap1 and PsU modifications. Cells were cultured with 20 ng/mL IFNs for 24 hours and then the cells were washed to remove cytokines. CAR expression was detected by Flow Cytometry (Attune) on day 2 after transfection. Cells were then co-cultured with a Nuc-Light labeled, HER2+ breast cancer cell line (CRL2351) at the Effector to Target ratio of 3:1. Cancer cell growth was monitored via its fluorescence on an Incucyte® live imaging microscope. CAR expression and M1 markers in macrophages were detected by Flow Cytometry (Attune) on day 7 after transfection.

[2] = system: HER2 CAR macrophages co-cultured with HER2+ breast cancer cells (CRL2351); test: Cytokine secretion of interferon treated HER2 CAR macrophages in co-culture (MSD); format: cell-based, human; details: E:T 3:1, supernatant at 48 hours
Experimental: Human macrophages were electroporated with 150 nM HER2 CAR mRNA comprising m6AGCap1 and PsU modifications. HER2+ breast cancer cells (CRL2351) were co-cultured with CAR macrophages after the macrophages were transfected with the CAR mRNA at an Effector (CAR macrophage) to Target (cancer cell) ratio of 3:1. Supernatant was collected 48 hours after the cancer cells and macrophages were co-cultured and cytokine levels were measured using a Meso Scale Discovery (MSD) instrument.

[3] = system: Human macrophages transfected with mCherry mRNA; test: mCherry mRNA expression in transfected macrophages (Incucyte); format: cell-based; details: cultured one day with different doses
Experimental: Human macrophages were transfected with mCherry mRNA comprising m6AGCap1 and PsU or N1 mPsU modifications and were then cultured for one day with different doses of IFN-γ. mCherry expression was monitored on an Incucyte® live imaging microscope.
In order to determine whether an RNaseL inhibitor could rescue IFN-γ-induced instability of transfected mRNA, human macrophages were treated with 1 μM sunitinib (an RNaseL inhibitor) two hours prior to the transfection of mCherry mRNA comprising m6AGCap1 and PsU modifications. Transfected cells were then cultured for one day with different dosages of IFN-γ. mCherry expression was monitored on an Incucyte® live imaging microscope.
The effect of another RNaseL inhibitor (RLI or ABCE1) was also tested to further validate the concept. Human macrophages were co-transfected with mRNA encoding mCherry comprising m6AGCap 1 and PsU modifications and with mRNA encoding ABCE1.

[4] = system: Her2-Zeta CAR expressing macrophages; test: Priming of CAR macrophages with plate-coated agonists, M1 and M2 surface markers; format: cell-based, human; details: plate-coated protein, 3 days
Experimental: (§1) To generate Her2-Zeta CAR expressing macrophages, primary human macrophages were suspended in EP buffer (MaxCyte) containing 300 nM mRNA (TriLink) at a concentration of 90×10^6 cells/mL. 100 μL of cell mixture was added to an electroporation cassette (OC100×2; MaxCyte) and electroporated using the Experimental T cell 1 setting. Cells were removed from the cassette, plated in 3 mL of TexMACS media (Miltenyi Biotech) containing 20% FBS (Gibco) on UpCell plates (Thermo Scientific), and incubated overnight at 37 C and 5% CO2.
(§2) Recombinant CD40 ligand (Peprotech), 4-1BB ligand (Enzo Life Sciences), and 4-1BB receptor (Peprotech) were resuspended in molecular grade water to a stock concentration of 100 μg/mL. Stock solution was then used to create working solutions in PBS ranging from 2-0.002 μg/mL. 100 uL of working solution was added to wells in a 96-well plate and left at room temperature for 4 h.
For detection of cell surface proteins, macrophages were plated onto wells coated with agonist molecules in a final volume of 200 uL TexMACS media+10% FBS+10 ng/mL GM-CSF and incubated for 3 days at 37 C and 5% CO2. Cells were incubated in 300 μL Accutase (Sigma) for 30 min and transferred to 96-well round bottom plate for staining. Cells were incubated in FACS buffer containing 20 μg/mL Her2-His for 20 min at RT, followed by incubation in Human TruStain FcX for 10 min at RT. […]

[5] = system: CRL-2351 cells expressing nuclear GFP; test: Priming of CAR macrophages with plate-coated agonists, tumor cell killing; format: cell-based; details: plate-coated protein, 3 h priming
Experimental: as §1, §2
Plates were removed from the incubator and left at room temperature for 30 min. Cells were detached from plate, counted using the NC-200 automated cell counter (Chemomtech), and re-suspended in TexMACS media with 10% FBS. […] Cell lysis was detected using Incucyte® analysis (Essen Bioscience). Tumor cell death was calculated by integrated GFP intensity per well relative to time 0.

| Molecule | M1 phenotype based on CD86 expression [1] | M2 markers based on CD163 expression [1] | secretion of IL-6, IL-8 and TNFα from macrophages [2] | mCherry mRNA expression [3] | M1 phenotype of mRNA CAR macrophages (M1 and M2 markers) [4] | tumor killing ability of macrophages and CAR macrophages [5] |
| --- | --- | --- | --- | --- | --- | --- |
| IFN-α | induction of an M1 phenotype | reduction of M2 markers | increased secretion of the cytokines IL-6, IL-8 and TNFα | – | – | – |
| IFN-γ: interferon cytokine that induces an M1 phenotype | induction of an M1 phenotype | reduction of M2 markers | increased secretion of the cytokines IL-6, IL-8 and TNFα | reduced mCherry mRNA expression | – | – |
| B1 | – | – | – | – | induced an M1 phenotype | significantly improved the tumor killing ability |
